Reference: patent US12605344B2, “Nanoparticles encapsulating soluble biologics, therapeutics, and imaging agents” (The Trustees of Princeton University, priority 2014, dated 2026)

How the values were obtained:
[1] = Solubility in organic solvents; assay type: physicochemical; details: in chloroform and acetone
[2] = Maximum loading giving stable nanoparticles (FNP); assay type: physicochemical; details: PBA-b-PAA nanoparticles by FNP
From the text: Increasing the percentage of core material necessitated the formation of larger particles. […] This may be because the addition of core material allows the PAA to more tightly pack due to charge shielding effects. Very high loadings of both lysozyme and vancomycin were obtained. Loading of lysozyme as high as 75 wt % was obtained without the formation of large precipitates, however, the particles were too large to analyze using dynamic light scattering (DLS).

CN[C@H](CC(C)C)C(=O)N[C@H]1C(=O)N[C@@H](CC(N)=O)C(=O)N[C@H]2C(=O)N[C@H]3C(=O)N[C@H](C(=O)N[C@H](C(=O)O)c4cc(O)cc(O)c4-c4cc3ccc4O)[C@H](O)c3ccc(c(Cl)c3)Oc3cc2cc(c3O[C@@H]2O[C@H](CO)[C@@H](O)[C@H](O)[C@H]2O[C@H]2C[C@](C)(N)[C@H](O)[C@H](C)O2)Oc2ccc(cc2Cl)[C@H]1O [Vancomycin, vancomycin]
solubility [1]: poorly soluble
loading obtained with stable particles / without large precipitates [2]: up to 90 wt %

lysozyme
loading obtained with stable particles / without large precipitates [2]: ≤ 75 wt %
